Data from ChEMBL document CHEMBL4308860, “Nature-inspired development of unnatural meroterpenoids as the non-toxic anti-colon cancer agents” (Eur J Med Chem, 2018).
Active and inactive are the calls of the source. The rule behind the calls is not given here.

Columns and labels:
[1] = tested on: HT-29; test: Antiproliferative activity against human HT-29 cells assessed as inhibition of cell proliferation after 72 hrs by MTT assay; format: functional, cell-based; conditions: for IC50: HT-29, 72 h
[2] = tested on: L132; test: Antiproliferative activity against human L-132 cells up to 25 uM after 72 hrs by MTT assay; format: cell-based; conditions: l132, 72 h
[3] = tested on: HT-29; test: Cytotoxicity against human HT-29 cells assessed as increase in cell death after 72 hrs by Propidium iodide staining-based flow cytometric analysis; format: functional
[4] = tested on: HT-29; test: Cytotoxicity against human HT-29 cells assessed as cell death at 50 uM after 72 hrs by Propidium iodide staining-based flow cytometric analysis relative to control; format: functional
[5] = tested on: HT-29; test: Cell cycle arrest in human HT-29 cells assessed as accumulation at S phase up to 10 uM after 48 hrs by propidium iodide/RNase staining based flow cytometric analysis; format: functional
[6] = tested on: HT-29; test: Down regulation of survivin level in human HT-29 cells up to 25 uM after 48 hrs by Western blot analysis; format: functional, cell-based
[7] = tested on: HT-29; test: Down regulation of COX-2 level in human HT-29 cells up to 25 uM after 48 hrs by Western blot analysis; format: functional, cell-based
[8] = tested on: HT-29; test: Antiproliferative activity against human HT-29 cells assessed as inhibition of cell proliferation at 25 uM after 72 hrs by MTT assay; format: functional; conditions: HT-29, 72 h
[9] = tested on: HT-29; test: Induction of apoptosis in human HT-29 cells assessed as increase in apoptotic body formation up to 25 uM after 72 hrs by calcein-AM/ethidium homodimer-1 staining-based fluorescence microscopic analysis; format: functional, cell-based
[10] = tested on: HT-29; test: Cell cycle arrest in human HT-29 cells assessed as accumulation at S phase up to 7 uM after 48 hrs by propidium iodide/RNase staining based flow cytometric analysis; format: functional
[11] = tested on: HT-29; test: Cell cycle arrest in human HT-29 cells assessed as accumulation at S phase up to 5 uM after 48 hrs by propidium iodide/RNase staining based flow cytometric analysis; format: functional
[12] = tested on: HT-29; test: Cell cycle arrest in human HT-29 cells assessed as accumulation at G2/M phase up to 15 uM after 48 hrs by propidium iodide/RNase staining based flow cytometric analysis; format: functional
[13] = tested on: HT-29; test: Cell cycle arrest in human HT-29 cells assessed as accumulation at G0/G1 phase up to 5 uM after 48 hrs by propidium iodide/RNase staining based flow cytometric analysis; format: functional
[14] = tested on: HT-29; test: Cell cycle arrest in human HT-29 cells assessed as accumulation at G2/M phase up to 10 uM after 48 hrs by propidium iodide/RNase staining based flow cytometric analysis; format: functional

Row | Structure (SMILES) | Activity [1] | IC50 [1] [µM] | Activity [2] | Activity [3] | Activity [4] [%] | Activity [6] | Activity [7] | inhibition at 25 µM [8] [%] | further results
1 | CC1(C)CC[C@@H]2c3cc(O)ccc3C[C@]3(C)CCC[C@@H]1[C@H]23 | Dose-dependent effect | 16 | Non-Toxic | Dose-dependent effect | >50 | Active | Active | 114 | Activity [5]: Active
2 | C[C@@H]1CC[C@H]2C(C)(C)[C@@H](O)CC[C@]2(C)C1(O)Cc1ccccc1O (some centres undefined) |  |  |  |  |  |  |  | -1.89 | 
3 | CC1(C)CC[C@@H]2c3cc(O)c(O)cc3C[C@]3(C)CCC[C@@H]1[C@H]23 | Dose-dependent effect | 7.5 | Non-Toxic | Dose-dependent effect |  | Active | Active | 142 | Activity [9]: Active; Activity [10]: Active
4 | CC(C)(C)c1ccc2c(c1)[C@H]1CCC(C)(C)[C@@H]3CCC[C@@](C)(C2)[C@@H]13 |  |  |  |  |  |  |  | -1.89 | 
5 | Cc1ccc(C[C@]2(O)CCC[C@H]3C(C)(C)CCC[C@@]32C)cc1 |  |  |  |  |  |  |  | 13 | 
6 | CC1(C)CC[C@@H]2c3ccccc3C[C@]3(C)CCC[C@@H]1[C@H]23 |  |  |  |  |  |  |  | 22.4 | 
7 | O=c1[nH]cc(F)c(=O)[nH]1 [FLUOROURACIL] | Dose-dependent effect | 6.5 | Non-Toxic | inactive |  |  |  |  | Activity [11]: Active
8 | COc1ccc(C[C@]2(O)CCC[C@H]3C(C)(C)[C@@H](O)CC[C@@]32C)cc1 |  |  |  |  |  |  |  | -3.48 | 
9 | CC1(C)CC[C@@H]2c3ccc(O)c(O)c3C[C@]3(C)CCC[C@@H]1[C@H]23 | Dose-dependent effect | 16.5 | Non-Toxic | Dose-dependent effect |  | Active | Active | 118 | Activity [5]: Active
10 | CC1(C)CC[C@@H]2c3cccc(O)c3C[C@]3(C)CCC[C@@H]1[C@H]23 |  |  |  |  |  |  |  | 39.1 | 
11 | CC1(C)CC[C@@H]2c3cc(O)ccc3C[C@@]3(C)[C@@H]2[C@H]1CCC3(C)C | Dose-dependent effect | 15 | Non-Toxic | Dose-dependent effect | >50 | Active | Active | 97.5 | Activity [9]: Active; Activity [12]: Active
12 | CC1(C)CC[C@@H]2C3=C(C[C@]4(C)CCC[C@@H]1[C@H]24)C(=O)C=CC3=O | Dose-dependent effect | 14.5 | Non-Toxic | Dose-dependent effect | >50 | Active | Active | 124 | Activity [5]: Active
13 | C[C@@H]1CC[C@@H]2C3=C(C[C@]4(C)CCC[C@@H]1[C@H]24)C(=O)C=CC3=O | Dose-dependent effect | 8 | Non-Toxic | Dose-dependent effect | >50 | Active | Active | 71.8 | Activity [13]: Active; Activity [9]: Active
14 | CC1(C)CC[C@@H]2c3ccc(O)cc3C[C@]3(C)CCC[C@@H]1[C@H]23 | Dose-dependent effect | 20.5 | Non-Toxic | Dose-dependent effect | >50 |  |  | 112 | Activity [14]: Active
15 | COc1ccc(CC2(O)CCC[C@@H]3CCCC[C@@H]32)cc1 (some centres undefined) |  |  |  |  |  |  |  | 0.56 | 
